# Legend:
# Format in all cases: cell-based
# E. coli DH5α = test: Antibacterial activity: MIC and growth curve against E. coli DH5α in 96-well plate; conditions: minimal inhibitory concentration against E. coli DH5α; 96-well plate, 5×10^5 CFU/mL, 37° C., judged after 8 h
# Procedure, shortened: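 Log-phase bacteria (OD600 ~0.5) resuspended in LB at 5×10^5 CFU/mL, exposed to recombinant protein at 50, 25, 12.5 μg/mL final in triplicate, 37 °C shaking at 175 rpm. OD600 read every 30 min; MIC is lowest concentration showing no growth.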
# E. coli BL21 = test: MIC against Gram-negative bacteria: E. coli BL21; conditions: 5×10^5 CFU/mL
# Procedure, shortened: (§1)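 Purified recombinant human EGF domain proteins are tested by broth dilution in LB against a 5×10^5 CFU/mL inoculum, with two-fold serial dilutions run in triplicate. Plates are incubated at 37° C with shaking, and the MIC is read as the lowest protein concentration without growth.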
# Pseudomonas aeruginosa = test: MIC against Gram-negative bacteria: Pseudomonas aeruginosa; conditions: 5×10^5 CFU/mL
# Procedure, shortened: as §1
# Klebsiella pneumonia = test: MIC against Gram-negative bacteria: Klebsiella pneumonia; conditions: 5×10^5 CFU/mL
# Procedure, shortened: as §1
# Enterobacter cloacae = test: MIC against Gram-negative bacteria: Enterobacter cloacae; conditions: 5×10^5 CFU/mL
# Procedure, shortened: as §1
# Aeromonas hydrophila = test: MIC against Gram-negative bacteria: Aeromonas hydrophila; conditions: 5×10^5 CFU/mL
# Procedure, shortened: as §1
# Citrobacter diversus = test: MIC against Gram-negative bacteria: Citrobacter diversus; conditions: 5×10^5 CFU/mL
# Procedure, shortened: as §1
# Moraxella catarrhalis = test: MIC against Gram-negative bacteria: Moraxella catarrhalis; conditions: 5×10^5 CFU/mL
# Procedure, shortened: as §1
# Proteus mirabilis = test: MIC against Gram-negative bacteria: Proteus mirabilis; conditions: 5×10^5 CFU/mL
# Procedure, shortened: as §1
# Proteus vulgaris = test: MIC against Gram-negative bacteria: Proteus vulgaris; conditions: 5×10^5 CFU/mL
# Procedure, shortened: as §1
# Serratia marcescens = test: MIC against Gram-negative bacteria: Serratia marcescens; conditions: 5×10^5 CFU/mL
# Procedure, shortened: as §1
# [1] = 10 h cultivation at 37° C., two-fold serial dilution
# [2] = E. coli BL21, 10 h cultivation at 37° C.
# [3] = P. aeruginosa, 10 h cultivation at 37° C.
# [4] = K. pneumonia, 10 h cultivation at 37° C.
# [5] = E. cloacae, 10 h cultivation at 37° C.
# [6] = A. hydrophila, 10 h cultivation at 37° C.
# [7] = C. diversus, 10 h cultivation at 37° C.
# [8] = M. catarrhalis, 10 h cultivation at 37° C.
# [9] = P. mirabilis, 10 h cultivation at 37° C.
# [10] = P. vulgaris, 10 h cultivation at 37° C.
# [11] = S. marcescens, 10 h cultivation at 37° C.
substance,measurement,setting,value
PRT1050 (HFSRCPKQYKHYCIKGRCRFVVAEQTPSCVCDEGYIGARCE; listed as Homo sapiens),MIC,E. coli DH5α,25 µg/mL
same,MIC E. coli BL21,E. coli BL21; [1],12.5 µg/mL
same,MIC P. aeruginosa,Pseudomonas aeruginosa; [1],25 µg/mL
same,MIC K. pneumonia,Klebsiella pneumonia; [1],12.5 µg/mL
same,MIC E. cloacae,Enterobacter cloacae; [1],25 µg/mL
same,MIC A. hydrophila,Aeromonas hydrophila; [1],25 µg/mL
same,MIC C. diversus,Citrobacter diversus; [1],12.5 µg/mL
same,MIC M. catarrhalis,Moraxella catarrhalis; [1],12.5 µg/mL
same,MIC P. mirabilis,Proteus mirabilis; [1],12.5 µg/mL
same,MIC P. vulgaris,Proteus vulgaris; [1],50 µg/mL
same,MIC S. marcescens,Serratia marcescens; [1],12.5 µg/mL
PRT692 (DVDECATGGRCQHGECANTRGGYTCVCPDGFLLDSSRSSCI; listed as Homo sapiens),MIC,E. coli DH5α,50 µg/mL
same,MIC E. coli BL21,"E. coli BL21; 96-well plate, 37° C., 10 h",25 µg/mL
same,MIC P. aeruginosa,"Pseudomonas aeruginosa; 96-well plate, 37° C., 10 h",12.5 µg/mL
same,MIC K. pneumonia,"Klebsiella pneumonia; 96-well plate, 37° C., 10 h",50 µg/mL
same,MIC E. cloacae,"Enterobacter cloacae; 96-well plate, 37° C., 10 h",25 µg/mL
same,MIC A. hydrophila,"Aeromonas hydrophila; 96-well plate, 37° C., 10 h",12.5 µg/mL
same,MIC C. diversus,"Citrobacter diversus; 96-well plate, 37° C., 10 h",50 µg/mL
same,MIC M. catarrhalis,"Moraxella catarrhalis; 96-well plate, 37° C., 10 h",25 µg/mL
same,MIC P. mirabilis,"Proteus mirabilis; 96-well plate, 37° C., 10 h",12.5 µg/mL
same,MIC P. vulgaris,"Proteus vulgaris; 96-well plate, 37° C., 10 h",25 µg/mL
same,MIC S. marcescens,"Serratia marcescens; 96-well plate, 37° C., 10 h",50 µg/mL
PRT1325 (TEDNCNGTCHTSANCLTNSDGTASCKCAAGFQGNGTICT; listed as Homo sapiens),MIC,E. coli DH5α,12.5 µg/mL
same,MIC against E. coli BL21,"E. coli BL21; E. coli BL21, 96-well plate, 37° C., 10 h",12.5 µg/mL
same,MIC against P. aeruginosa,"Pseudomonas aeruginosa; Pseudomonas aeruginosa, 96-well plate, 37° C., 10 h",25 µg/mL
same,MIC against K. pneumonia,"Klebsiella pneumonia; Klebsiella pneumonia, 96-well plate, 37° C., 10 h",12.5 µg/mL
same,MIC against E. cloacae,"Enterobacter cloacae; Enterobacter cloacae, 96-well plate, 37° C., 10 h",25 µg/mL
same,MIC against A. hydrophila,"Aeromonas hydrophila; Aeromonas hydrophila, 96-well plate, 37° C., 10 h",25 µg/mL
same,MIC against C. diversus,"Citrobacter diversus; Citrobacter diversus, 96-well plate, 37° C., 10 h",12.5 µg/mL
same,MIC against M. catarrhalis,"Moraxella catarrhalis; Moraxella catarrhalis, 96-well plate, 37° C., 10 h",12.5 µg/mL
same,MIC against P. mirabilis,"Proteus mirabilis; Proteus mirabilis, 96-well plate, 37° C., 10 h",25 µg/mL
same,MIC against P. vulgaris,"Proteus vulgaris; Proteus vulgaris, 96-well plate, 37° C., 10 h",12.5 µg/mL
same,MIC against S. marcescens,"Serratia marcescens; Serratia marcescens, 96-well plate, 37° C., 10 h",25 µg/mL
PRT496 (CSCNNHSDTCDPNTGKCLNCGDNTAGDHCDVCTSGYYGKVTGSASDCAL; listed as Homo sapiens),MIC,E. coli DH5α,12.5 µg/mL
same,MIC against E. coli BL21,"E. coli BL21; 96-well plate, 37° C., 10 h",12.5 µg/mL
same,MIC against P. aeruginosa,"Pseudomonas aeruginosa; 96-well plate, 37° C., 10 h",50 µg/mL
same,MIC against K. pneumonia,"Klebsiella pneumonia; 96-well plate, 37° C., 10 h",12.5 µg/mL
same,MIC against E. cloacae,"Enterobacter cloacae; 96-well plate, 37° C., 10 h",50 µg/mL
same,MIC against A. hydrophila,"Aeromonas hydrophila; 96-well plate, 37° C., 10 h",12.5 µg/mL
same,MIC against C. diversus,"Citrobacter diversus; 96-well plate, 37° C., 10 h",50 µg/mL
same,MIC against M. catarrhalis,"Moraxella catarrhalis; 96-well plate, 37° C., 10 h",12.5 µg/mL
same,MIC against P. mirabilis,"Proteus mirabilis; 96-well plate, 37° C., 10 h",25 µg/mL
same,MIC against P. vulgaris,"Proteus vulgaris; 96-well plate, 37° C., 10 h",50 µg/mL
same,MIC against S. marcescens,"Serratia marcescens; 96-well plate, 37° C., 10 h",25 µg/mL
PRT175 (CEHAPCHNGATCHERGHRYVCECARGYGGPNC; listed as Homo sapiens),MIC,E. coli DH5α,12.5 µg/mL
same,MIC (μg/mL) E. coli BL21,E. coli BL21; [2],12.5 µg/mL
same,MIC (μg/mL) P. aeruginosa,Pseudomonas aeruginosa; [3],12.5 µg/mL
same,MIC (μg/mL) K. pneumonia,Klebsiella pneumonia; [4],12.5 µg/mL
same,MIC (μg/mL) E. cloacae,Enterobacter cloacae; [5],12.5 µg/mL
same,MIC (μg/mL) A. hydrophila,Aeromonas hydrophila; [6],25 µg/mL
same,MIC (μg/mL) C. diversus,Citrobacter diversus; [7],12.5 µg/mL
same,MIC (μg/mL) M. catarrhalis,Moraxella catarrhalis; [8],25 µg/mL
same,MIC (μg/mL) P. mirabilis,Proteus mirabilis; [9],12.5 µg/mL
same,MIC (μg/mL) P. vulgaris,Proteus vulgaris; [10],25 µg/mL
same,MIC (μg/mL) S. marcescens,Serratia marcescens; [11],12.5 µg/mL
PRT420 (DIDECVTGIHNCSINETCFNIQGGFRCLAFECPENYRRSAATLQQEKTDTVRCI; listed as Homo sapiens),MIC,E. coli DH5α,50 µg/mL
same,MIC,E. coli BL21; [2],25 µg/mL
same,MIC,Pseudomonas aeruginosa; [3],12.5 µg/mL
same,MIC,Klebsiella pneumonia; [4],25 µg/mL
same,MIC,Enterobacter cloacae; [5],50 µg/mL
same,MIC,Aeromonas hydrophila; [6],12.5 µg/mL
same,MIC,Citrobacter diversus; [7],50 µg/mL
same,MIC,Moraxella catarrhalis; [8],12.5 µg/mL
same,MIC,Proteus mirabilis; [9],50 µg/mL
same,MIC,Proteus vulgaris; [10],100 µg/mL
same,MIC,Serratia marcescens; [11],50 µg/mL
PRT851 (DELDCGPSNCSQHGLCTETGCRCDAGWTGSNCS; listed as Homo sapiens),MIC,E. coli DH5α,25 µg/mL
same,MIC (μg/mL) E. coli BL21,E. coli BL21; [2],12.5 µg/mL
same,MIC (μg/mL) P. aeruginosa,Pseudomonas aeruginosa; [3],25 µg/mL
same,MIC (μg/mL) K. pneumonia,Klebsiella pneumonia; [4],12.5 µg/mL
same,MIC (μg/mL) E. cloacae,Enterobacter cloacae; [5],12.5 µg/mL
same,MIC (μg/mL) A. hydrophila,Aeromonas hydrophila; [6],12.5 µg/mL
same,MIC (μg/mL) C. diversus,Citrobacter diversus; [7],12.5 µg/mL
same,MIC (μg/mL) M. catarrhalis,Moraxella catarrhalis; [8],12.5 µg/mL
same,MIC (μg/mL) P. mirabilis,Proteus mirabilis; [9],25 µg/mL
same,MIC (μg/mL) P. vulgaris,Proteus vulgaris; [10],12.5 µg/mL
same,MIC (μg/mL) S. marcescens,Serratia marcescens; [11],25 µg/mL
